From patent publication US20240352021A1 (DANA-FARBER CANCER INSTITUTE, INC., priority 2021, published 2024)
Where “and” joins values, the source holds several entries; their conditions need not be identical. Identical values can stand only once. Like-named read-outs stand apart in the source and are kept apart here.

Assays:
[1] = target: EGFR L858R/C797S Ba/F3 cells (Homo sapiens, UniProt P00533, C797S/L858R, cells depend on it); assay: Ba/F3 cell proliferation (Cell Titer Glo), EGFR L858R/C797S; type: cell-based, murine; settings: 72 hours
Description: (§1) The EGFR mutant L858R Ba/F3 cells have been previously described (Zhou, W., et al. Nature 462, 2009, 1070-1074). The EGFR C797S and C775S mutations were introduced via site directed mutagenesis using the Quick Change Site-Directed Mutagenesis kit into a vector containing EGFR L858R mutation (Stratagene; La Jolla, CA) according to the manufacturer's instructions. All constructs were confirmed by DNA sequencing. The constructs were then shuttled into the retroviral vector JP1540 by either using the Cre-recombination system (Agilent Technologies, Santa Clara, CA) or the In-fusion HD Cloning kit (Takara Bio USA, Inc.; Mountain view, CA). Ba/F3 cells were then infected with retrovirus per standard protocols, as described previously (Zhou, et al, Nature 2009). Stable clones were obtained by selection in puromycin (2 μg/ml). All BaF/3 mutant cells were maintained in RPMI 1640 (Cellgro; Mediatech Inc., Herndon, CA) supplemented with 10% FBS, 100 units/mL penicillin, 100 units/mL streptomycin.
(§2) Growth and inhibition of growth was assessed by the Cell Titer Glo assay (Promega, Madison, WI) and was performed according to the manufacturer's instructions. The Cell Titer Glo assay is a luminescence-based method used to determine the number of viable cells based on quantitation of the ATP present, which is directly proportional to the amount of metabolically active cells present. Ba/F3 cells of different EGFR genotypes were exposed to compounds for 72 hours and the number of cells used per experiment was determined empirically as has been previously established (Zhou, et al., Nature 2009). All experimental points were set up in triplicates in 384-well plates. […] The curves were fitted using a non-linear regression model with a sigmoidal dose response.
(§3) Ba/F3 cells assay data are provided below in Table 5 and Table 6. For inhibitory activity against EGFR mutants, the following designations are used: <0.1 μM=A, 0.1 μM˜0.5 μM=B, 0.5 μM˜2.5 μM=C, ≥2.5 μM=D

[2] = target: EGFR mutant L858R Ba/F3 cells (Homo sapiens, UniProt P00533, L858R, cells depend on it); assay: Ba/F3 cell proliferation (Cell Titer Glo), EGFR L858R; type: cell-based, murine; settings: 72 hours
Description: as §1, §2, §3

Chain of EGFR L858R/C797S Ba/F3 cells (P00533 whole entry C797S/L858R, the tested form may be a part): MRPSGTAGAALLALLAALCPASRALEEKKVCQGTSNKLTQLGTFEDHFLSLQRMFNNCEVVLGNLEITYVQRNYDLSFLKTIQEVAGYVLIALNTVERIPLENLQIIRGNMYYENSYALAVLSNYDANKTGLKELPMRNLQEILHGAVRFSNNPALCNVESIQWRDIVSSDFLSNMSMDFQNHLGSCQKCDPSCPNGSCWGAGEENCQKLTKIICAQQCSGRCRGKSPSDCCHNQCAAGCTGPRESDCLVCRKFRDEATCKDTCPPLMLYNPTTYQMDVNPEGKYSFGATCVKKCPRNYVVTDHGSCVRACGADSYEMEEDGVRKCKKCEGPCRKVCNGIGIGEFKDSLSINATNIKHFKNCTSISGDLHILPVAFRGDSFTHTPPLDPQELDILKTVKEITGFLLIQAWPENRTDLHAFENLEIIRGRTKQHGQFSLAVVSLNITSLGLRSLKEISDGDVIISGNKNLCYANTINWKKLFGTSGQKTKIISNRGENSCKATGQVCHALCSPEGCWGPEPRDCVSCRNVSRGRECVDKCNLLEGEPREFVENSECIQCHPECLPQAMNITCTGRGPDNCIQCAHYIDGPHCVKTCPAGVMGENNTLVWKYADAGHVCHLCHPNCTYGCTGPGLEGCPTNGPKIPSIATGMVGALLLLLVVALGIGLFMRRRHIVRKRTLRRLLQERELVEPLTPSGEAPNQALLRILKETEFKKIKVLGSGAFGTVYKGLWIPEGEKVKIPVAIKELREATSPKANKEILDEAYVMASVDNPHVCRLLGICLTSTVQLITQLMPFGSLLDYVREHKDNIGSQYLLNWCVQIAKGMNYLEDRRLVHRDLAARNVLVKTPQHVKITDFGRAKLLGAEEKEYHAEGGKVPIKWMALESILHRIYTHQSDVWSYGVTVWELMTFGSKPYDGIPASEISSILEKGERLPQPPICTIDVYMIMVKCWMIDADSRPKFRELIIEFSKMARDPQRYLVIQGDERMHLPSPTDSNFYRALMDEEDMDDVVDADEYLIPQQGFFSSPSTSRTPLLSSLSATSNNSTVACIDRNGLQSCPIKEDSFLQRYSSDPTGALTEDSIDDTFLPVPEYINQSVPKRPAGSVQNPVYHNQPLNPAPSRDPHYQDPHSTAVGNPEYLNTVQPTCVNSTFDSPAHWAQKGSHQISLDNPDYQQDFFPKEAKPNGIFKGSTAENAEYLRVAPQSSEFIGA
Chain of EGFR mutant L858R Ba/F3 cells (P00533 whole entry L858R): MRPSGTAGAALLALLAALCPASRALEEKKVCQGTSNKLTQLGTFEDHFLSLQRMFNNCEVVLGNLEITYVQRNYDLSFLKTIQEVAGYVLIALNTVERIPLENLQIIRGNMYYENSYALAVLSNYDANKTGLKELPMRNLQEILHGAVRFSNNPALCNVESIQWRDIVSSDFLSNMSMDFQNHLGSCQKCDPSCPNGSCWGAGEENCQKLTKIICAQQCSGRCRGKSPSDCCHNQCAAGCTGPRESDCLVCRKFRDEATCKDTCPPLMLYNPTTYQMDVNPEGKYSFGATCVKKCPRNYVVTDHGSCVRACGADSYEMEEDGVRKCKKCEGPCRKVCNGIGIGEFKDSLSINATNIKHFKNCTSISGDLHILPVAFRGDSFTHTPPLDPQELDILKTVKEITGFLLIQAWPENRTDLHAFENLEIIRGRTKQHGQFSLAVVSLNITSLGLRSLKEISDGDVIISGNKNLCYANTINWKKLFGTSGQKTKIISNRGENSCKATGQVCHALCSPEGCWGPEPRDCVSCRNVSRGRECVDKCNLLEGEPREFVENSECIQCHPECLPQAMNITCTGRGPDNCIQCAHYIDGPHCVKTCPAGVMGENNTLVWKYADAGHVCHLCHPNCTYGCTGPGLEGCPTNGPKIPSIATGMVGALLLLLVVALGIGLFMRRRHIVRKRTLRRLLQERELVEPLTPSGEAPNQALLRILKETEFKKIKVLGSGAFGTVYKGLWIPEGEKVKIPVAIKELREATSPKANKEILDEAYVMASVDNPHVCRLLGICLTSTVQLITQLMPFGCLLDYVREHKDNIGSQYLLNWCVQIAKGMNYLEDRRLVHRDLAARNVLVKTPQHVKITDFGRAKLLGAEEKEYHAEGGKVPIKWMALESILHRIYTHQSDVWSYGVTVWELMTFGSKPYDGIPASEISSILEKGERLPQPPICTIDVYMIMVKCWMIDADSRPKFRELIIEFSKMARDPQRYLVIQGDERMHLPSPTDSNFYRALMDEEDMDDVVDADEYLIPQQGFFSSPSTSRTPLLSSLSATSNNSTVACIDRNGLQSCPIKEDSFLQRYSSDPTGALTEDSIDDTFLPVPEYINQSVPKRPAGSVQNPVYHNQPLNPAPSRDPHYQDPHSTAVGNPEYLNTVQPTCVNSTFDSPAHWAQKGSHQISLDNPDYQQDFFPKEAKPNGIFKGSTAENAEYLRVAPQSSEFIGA

Row | GI50 ([1]; Table 6) | GI50 ([2]; Table 6, read-out: L858R BaF3) [nM] | GI50 ([1]; Table 5) [nM] | GI50 ([2]; Table 5, read-out: L858R BaF3) [nM] | SMILES
1 | < 100 nM | < 100 | – | – | C=C(F)C(=O)N1CC[C@H](N2Cc3cnc(Nc4cnn(CCO)c4)nc3N(C3CCOC3)C2=O)c2ccccc21 (stereo partly drawn) [Compound 102, 3-((S)-1-(2-fluoroacryloyl)-1,2,3,4-tetrahydroquinolin-4-yl)-7-((1-(2-hydroxyethyl)-1 H-pyrazol-4-yl)amino)-1-(tetrahydrofuran-S-yl)-3,4-dihydropyrimido[4,5-d]pyrimidin-2(1H)-one]
2 | < 100 nM | < 100 | – | – | C=CC(=O)N1CCC(N2Cc3cnc(Nc4ccc(CN5CCN(C)CC5)cc4)nc3N(C)C2=O)c2ccccc21 (stereo not drawn) [Compound 078]
3 | ≥ 2500 nM | ≥ 2500 | – | – | C=CC(=O)N1CC2CC1CC2N1Cc2cnc(Nc3ccc(N4CCN(C)CC4)cc3)nc2N(C)C1=O (stereo not drawn) [Compound 059, 1-methyl-7-[4-(4-methylpiperazin-1-yl)anilino]-S-(2-prop-2-enoyl-2-azabicyclo[2.2.1]heptan-5-yl)-4H-pyrimido[4,5-d]pyrimidin-2-one]
4 | < 100 nM | < 100 | – | – | C=CC(=O)N1CCC(N2Cc3cnc(Nc4ccc(N5CCN(C)CC5)cc4OC(F)(F)F)nc3N(C)C2=O)c2ccccc21 (stereo not drawn) [Compound 087]
5 | 500 to 2500 nM | 100 to 500 | – | – | C/C=C(\F)C(=O)N1CC[C@H](N2Cc3cnc(Nc4ccc(N5CCN(C)CC5)cc4)nc3N(C)C2=O)c2ccccc21 [Compound 097]
6 | < 100 nM | < 100 | – | – | C=CC(=O)N1CCC(N2Cc3cnc(Nc4ccc(N5CCN(C)CC5)cc4)nc3N(C)C2=O)c2cccc(F)c21 (stereo not drawn) [Compound 099, 3-(8-fluoro-1-prop-2-enoyl-3,4-dihydro-2H-quinolin-4-yl)-1-methyl-7-[4-(4-methylpiperazin-1-yl)anilino]-4H-pyrimido[4,5-d]pyrimidin-2-one]
7 | ≥ 2500 nM | ≥ 2500 | – | – | C=CC(=O)N1Cc2ccccc2C(N2Cc3cnc(Nc4ccc(N5CCN(C)CC5)cc4)nc3N(C)C2=O)C1 (stereo not drawn) [Compound 060, 3-(2-acryloyl-1,2,3,4-tetrahydroisoquinolin-4-yl)-1-methyl-7-((4-(4-methylpiperazin-1-yl)phenyl)amino)-3,4-dihydropyrimido[4,5-d]pyrimidin-2(1H)-one]
8 | < 100 nM | < 100 | – | – | C=CC(=O)N1CCC(N2Cc3cnc(Nc4ccc(N5CCN(C)CC5)cc4)nc3N(C3CCCC3)C2=O)c2ccccc21 (stereo not drawn) [Compound 057, 1-cyclopentyl-7-[4-(4-methylpiperazin-1-yl)anilino]-S-(1-prop-2-enoyl-3,4-dihydro-2H-quinolin-4-yl)-4H-pyrimido[4,5-d]pyrimidin-2-one]
9 | < 100 nM | < 100 | – | – | C=CC(=O)N1CCC(N2Cc3cnc(Nc4ccc5c(c4)CCN(C)C5)nc3N(C)C2=O)c2ccccc21 (stereo not drawn) [Compound 080]
10 | < 100 nM | < 100 | – | – | C=CC(=O)N1CCC(N2Cc3cnc(Nc4ccc(N(C)CCN(C)C)cc4)nc3N(C)C2=O)c2ccccc21 (stereo not drawn) [Compound 075]
11 | ≥ 2500 nM | ≥ 2500 | – | – | C=CC(=O)Nc1cccc2[nH]cc(CN3Cc4cnc(Nc5ccc(N6CCN(C)CC6)cc5)nc4N(C)C3=O)c12 [Compound 050]
12 | 500 to 2500 nM | 500 to 2500 | – | – | CN(C)C/C=C/C(=O)N1CCC(N2Cc3cnc(Nc4ccc(N5CCN(C)CC5)cc4)nc3N(C)C2=O)c2ccccc21 (stereo not drawn) [Compound 065]
13 | < 100 nM | < 100 | – | – | C=CC(=O)N1CC[C@H](N2Cc3cnc(Nc4ccc(N5CCN(C)CC5)cc4)nc3N(C)C2=O)c2ccccc21 [Compound 048, 1-methyl-7-[4-(4-methylpiperazin-1-yl)anilino]-S-[(4S)-1-prop-2-enoyl-3,4-dihydro-2H-quinolin-4-yl]-4H-pyrimido[4,5-d]pyrimidin-2-one]
14 | ≥ 2500 nM | ≥ 2500 | – | – | CN1C(=O)N([C@H]2CCN(C#N)c3ccccc32)Cc2cnc(Nc3cnn(CCO)c3)nc21 [Compound 103]
15 | < 100 nM | < 100 | – | – | C=C(F)C(=O)N1CC[C@H](N2Cc3cnc(Nc4cnn(CCO)c4)nc3N(CC(F)F)C2=O)c2ccccc21 [Compound 110, 1-(2,2-difluoroethyl)-S-[(4S)-1-(2-fluoroprop-2-enoyl)-3,4-dihydro-2H-quinolin-4-yl]-7-[[1-(2-hydroxyethyl)pyrazol-4-yl]amino]-4H-pyrimido[4,5-d]pyrimidin-2-one]
16 | < 100 nM | < 100 | – | – | C=CC(=O)N1CCC(N2Cc3cnc(Nc4ccc(C5=CCN(C)CC5)cc4)nc3N(C)C2=O)c2ccccc21 (stereo not drawn) [Compound 067]
17 | 100 to 500 nM | 100 to 500 | – | – | C=CC(=O)N1CC(N2Cc3cnc(Nc4ccc(N5CCN(C)CC5)cc4)nc3N(C)C2=O)c2ccccc21 (stereo not drawn) [Compound 047, 1-methyl-7-[4-(4-methylpiperazin-1-yl)anilino]-S-(1-prop-2-enoylindolin-3-yl)-4H-pyrimido[4,5-d]pyrimidin-2-one]

Row | GI50 ([1]; Table 6) | GI50 ([2]; Table 6, read-out: L858R BaF3) [nM] | GI50 ([1]; Table 5) [nM] | GI50 ([2]; Table 5, read-out: L858R BaF3) [nM] | SMILES
18 | < 100 nM | < 100 | – | – | C=CC(=O)N1CCC(N2Cc3cnc(Nc4cnn(CCN(C)C)c4)nc3N(C)C2=O)c2ccccc21 (stereo not drawn) [Compound 062]
19 | < 100 nM | < 100 | – | – | C=CC(=O)N1CC[C@@H](N2Cc3cnc(Nc4ccc(N5CCN(C)CC5)cc4)nc3N(C)C2=O)c2ccccc21 [Compound 049, 1-methyl-7-[4-(4-methylpiperazin-1-yl)anilino]-S-[(4R)-1-prop-2-enoyl-3,4-dihydro-2H-quinolin-4-yl]-4H-pyrimido[4,5-d]pyrimidin-2-one]
20 | ≥ 2500 nM | ≥ 2500 | – | – | C=CC(=O)Nc1cn(C)nc1CN1Cc2cnc(Nc3ccc(N4CCN(C)CC4)cc3)nc2N(C)C1=O [Compound 046]
21 | – | – | ≥ 2500 | 500 to 2500 | C=CC(=O)Nc1cccc(CN2Cc3cnc(Nc4ccc(N5CCN(C)CC5)cc4)nc3N(C)C2=O)c1 [Compound 036]
22 | 500 to 2500 nM | 100 to 500 | – | – | C=CC(=O)N1CCC(N2Cc3cnc(Nc4ccc(N5CCN(C)CC5)cc4)nc3N(c3cccc(NC(C)=O)c3)C2=O)c2ccccc21 (stereo not drawn) [Compound 051]
23 | ≥ 2500 nM | ≥ 2500 | – | – | CN1CCN(c2ccc(Nc3ncc4c(n3)N(C)C(=O)N([C@H]3CCN(C(=O)CC#N)c5ccccc53)C4)cc2)CC1 [Compound 096]
24 | 100 to 500 nM and < 100 nM | < 100 | – | – | C=CC(=O)N1CCC(N2Cc3cnc(Nc4ccc(F)c(C#N)c4)nc3N(C)C2=O)c2ccccc21 (stereo not drawn) [Compound 082]
25 | ≥ 2500 nM | 500 to 2500 | – | – | C=C(F)C(=O)N1CC(F)(F)C(N2Cc3cnc(Nc4cnn(CCO)c4)nc3N(C)C2=O)c2ccccc21 (stereo not drawn) [Compound 108, 3-[3,3-difluoro-1-(2-fluoroprop-2-enoyl)-2,4-dihydroquinolin-4-yl]-7-[[1-(2-hydroxyethyl)pyrazol-4-yl]amino]-1-methyl-4H-pyrimido[4,5-d]pyrimidin-2-one]
26 | ≥ 2500 nM | ≥ 2500 | – | – | C=CC(=O)N1CCC(N2Cc3cnc(Nc4ccc(N5CCN(C)CC5)cc4)nc3N(C)C2=O)CC1 [Compound 054]
27 | < 100 nM | < 100 | – | – | C=CC(=O)N1CCC(N2Cc3cnc(Nc4ccc(CN5CCN(C)CC5)c(Cl)c4)nc3N(C)C2=O)c2ccccc21 (stereo not drawn) [Compound 088]
28 | < 100 nM | < 100 | – | – | C=CC(=O)N1CCC(N2Cc3cnc(Nc4ccc(N5CCN(C)CC5)cc4Cl)nc3N(C)C2=O)c2ccccc21 (stereo not drawn) [Compound 077]
29 | – | – | 100 to 500 | 100 to 500 | C=CC(=O)Nc1ccccc1CN1Cc2cnc(Nc3ccc(N4CCN(C)CC4)cc3)nc2N(C)C1=O [Compound 001, N-(2-((1-methyl-7-((4-(4-methylpiperazin-1-yl)phenyl)amino)-2-oxo-1,4-dihydropyrimido[4,5-d]pyrimidin-S(2H)-yl)methyl)phenyl)acrylamide]
30 | < 100 nM | < 100 | – | – | C=C(F)C(=O)N1CC[C@H](N2Cc3cnc(Nc4ccc5c(c4)CCN(C)C5)nc3N(c3cnn(C)c3)C2=O)c2ccccc21 [Compound 109]
31 | < 100 nM | < 100 | – | – | C=CC(=O)N1CCC(N2Cc3cnc(Nc4cc(F)c(N5CCN(C)CC5)c(F)c4)nc3N(C)C2=O)c2ccccc21 (stereo not drawn) [Compound 072]
32 | < 100 nM | < 100 | – | – | C=CC(=O)N1CCC(N2Cc3cnc(Nc4ccc(N5CCN(C)CC5)cc4)nc3N(C)C2=O)c2cccc(OC)c21 (stereo not drawn) [Compound 100, 3-(8-methoxy-1-prop-2-enoyl-3,4-dihydro-2H-quinolin-4-yl)-1-methyl-7-[4-(4-methylpiperazin-1-yl)anilino]-4H-pyrimido[4,5-d]pyrimidin-2-one]
33 | ≥ 2500 nM | ≥ 2500 | – | – | C=CC(=O)N1CCC(N2Cc3cnc(Nc4ccc(N5CCN(C)CC5)cc4)nc3N(C)C2=O)CC12CCC2 (stereo not drawn) [Compound 089, 1-methyl-7-[4-(4-methylpiperazin-1-yl)anilino]-S-(5-prop-2-enoyl-5-azaspiro[3.5]nonan-8-yl)-4H-pyrimido[4,5-d]pyrimidin-2-one]
